The assay concerns P388 leukemia ip, CD2F1 mice, survival T/C. The assay can be described thus: NCI In Vivo Anticancer Drug Screen. Data for tumor model P388 Leukemia (intraperitoneal) in CD2F1 (CDF1) mice. The following applies: endpoint: median survival time, higher = longer survival. The method, boiled down:
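Mice carrying the transplanted tumor received test compound or vehicle. Survival was recorded in each group, and the value is the treated-group measurement divided by that of the vehicle-treated control group.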

Setting [1] is: dose: 50.0 mg/kg/injection, schedule: Q01DX009 (ip), vehicle: saline.
The mark [2] stands for this setting: dose: 100.0 mg/kg/injection, schedule: Q01DX009 (ip), vehicle: saline.
Where [3] appears, read: dose: 200.0 mg/kg/injection, schedule: Q01DX009 (ip), vehicle: saline.
The mark [4] stands for this setting: dose: 400.0 mg/kg/injection, schedule: Q01DX009 (ip), vehicle: saline.
Setting [5] is: dose: 50.0 mg/kg/injection, schedule: Q01DX005 (ip), vehicle: Klucel (hydroxypropylcellulose) (HPC).
Setting [6] is: dose: 100.0 mg/kg/injection, schedule: Q01DX005 (ip), vehicle: Klucel (hydroxypropylcellulose) (HPC).
[7] abbreviates: dose: 200.0 mg/kg/injection, schedule: Q01DX005 (ip), vehicle: Klucel (hydroxypropylcellulose) (HPC).
Where [8] appears, read: dose: 50.0 mg/kg/injection, schedule: Q01DX005 (ip), vehicle: saline with Tween-80.
Where [9] appears, read: dose: 100.0 mg/kg/injection, schedule: Q01DX005 (ip), vehicle: saline with Tween-80.
Where [10] appears, read: dose: 60.0 mg/kg/injection, schedule: Q01DX005 (ip), vehicle: saline with Tween-80.
[11] abbreviates: dose: 120.0 mg/kg/injection, schedule: Q01DX005 (ip), vehicle: saline with Tween-80.
Where [12] appears, read: dose: 240.0 mg/kg/injection, schedule: Q01DX005 (ip), vehicle: saline with Tween-80.
Where [13] appears, read: dose: 50.0 mg/kg/injection, schedule: Q01DX009 (ip), vehicle: saline with Tween-80.
[14] abbreviates: dose: 100.0 mg/kg/injection, schedule: Q01DX009 (ip), vehicle: saline with Tween-80.
Setting [15] is: dose: 200.0 mg/kg/injection, schedule: Q01DX009 (ip), vehicle: saline with Tween-80.

“And” between values parts separate entries of the source, which are not always exact repeats. Equal values may be shown once. Toxic doses and inconclusive results are not listed.

`COc1ccc2c(c1)-c1nn(CCCN(C)C)c3ccc([N+](=O)[O-])c(c13)N2`: the T/C is, setting by setting: (dose: 4.5 mg/kg/injection, schedule: Q01DX005 (ip), vehicle: water) 169 % of control; (dose: 6.25 mg/kg/injection, schedule: Q01DX005 (ip), vehicle: water) 189 % of control; (dose: 7.5 mg/kg/injection, schedule: Q01DX005 (ip), vehicle: water) 181 % of control; (dose: 12.5 mg/kg/injection, schedule: Q01DX005 (ip), vehicle: water) 213 % of control and 216 % of control and 227 % of control; (dose: 21.0 mg/kg/injection, schedule: Q01DX005 (ip), vehicle: water) 253 % of control; (dose: 25.0 mg/kg/injection, schedule: Q01DX005 (ip), vehicle: water) 261 % of control. The T/C (dose: 35.0 mg/kg/injection, schedule: Q01DX005 (ip), vehicle: water) is 290 % of control.

Turning to `OC1C(O)C(O)C(O)C(O)C1O` (centres undefined), the T/C by setting is: under setting [1], 97 % of control; under setting [2], 96 % of control; under setting [3], 100 % of control; under setting [4], 96 % of control.

`CCCCCCCCCCn1cc[nH]c1=S`: the T/C is, setting by setting: (dose: 25.0 mg/kg/injection, schedule: Q01DX005 (ip), vehicle: Klucel (hydroxypropylcellulose) (HPC)) 103 % of control; under setting [5], 107 % of control and 115 % of control; under setting [6], 105 % of control and 112 % of control; under setting [7], 117 % of control.

For `NC(=O)[C@@H]1CC2CCC1C2` (some centres undefined), the T/C was 88 % of control under setting [5], 93 % of control under setting [6] and 87 % of control under setting [7].

Take `O=C(/C=C\c1cccc2ccccc12)c1ccccn1`: the T/C is, setting by setting: (dose: 100.0 mg/kg/injection, schedule: Q01DX001 (ip), vehicle: saline with Tween-80) 106 % of control; (dose: 200.0 mg/kg/injection, schedule: Q01DX001 (ip), vehicle: saline with Tween-80) 112 % of control; (dose: 400.0 mg/kg/injection, schedule: Q01DX001 (ip), vehicle: saline with Tween-80) 112 % of control.

With `COc1ccc(-c2c(N3CCOCC3)oc3cc(N4CCOCC4)c(O)cc23)cc1`, the T/C by setting is: (dose: 25.0 mg/kg/injection, schedule: Q01DX005 (ip), vehicle: saline with Tween-80) 100 % of control; under setting [8], 98 % of control; under setting [9], 100 % of control; (dose: 200.0 mg/kg/injection, schedule: Q01DX005 (ip), vehicle: saline with Tween-80) 91 % of control.

For `CC(=O)Nc1ccc(S(=O)(=O)N/N=C/c2cc([N+](=O)[O-])cc(I)c2O)cc1`, the T/C was 93 % of control under setting [10], 97 % of control under setting [11] and 103 % of control under setting [12].

On to `CC12CCC(C/C1=N\[N+](=O)[O-])C2(C)C` (centres undefined), for which the T/C is 96 % of control (dose: 12.5 mg/kg/injection, schedule: Q01DX009 (ip), vehicle: suspension in saline); 97 % of control (dose: 25.0 mg/kg/injection, schedule: Q01DX009 (ip), vehicle: suspension in saline); 100 % of control under setting [1]; 97 % of control (dose: 50.0 mg/kg/injection, schedule: Q01DX009 (ip), vehicle: suspension in saline); 90 % of control under setting [3].

Take `Cc1cc(C(=O)N/N=C/c2cc(Cl)cc(Cl)c2O)c2cc(Br)ccc2n1`: the T/C is 91 % of control under setting [13], 91 % of control under setting [14] and 93 % of control under setting [15].

With `CCOc1ccc(-n2c(=O)c(N=Nc3ccc(OC)cc3)c(O)n(-c3ccccc3Cl)c2=S)cc1`, the T/C runs as follows: (dose: 50.0 mg/kg/injection, schedule: Q01DX001 (ip), vehicle: Klucel (hydroxypropylcellulose) (HPC)) 97 % of control; (dose: 100.0 mg/kg/injection, schedule: Q01DX001 (ip), vehicle: Klucel (hydroxypropylcellulose) (HPC)) 94 % of control; (dose: 200.0 mg/kg/injection, schedule: Q01DX001 (ip), vehicle: Klucel (hydroxypropylcellulose) (HPC)) 94 % of control.

As to `CC(C)n1c2c([n+](C)c1/C=C/c1ccccc1)C(=O)c1ccccc1C2=O`, the T/C is 109 % of control (dose: 0.44 mg/kg/injection, schedule: Q01DX009 (ip), vehicle: saline); 116 % of control (dose: 0.66 mg/kg/injection, schedule: Q01DX009 (ip), vehicle: saline); 119 % of control (dose: 1.0 mg/kg/injection, schedule: Q01DX009 (ip), vehicle: saline); 112 % of control (dose: 1.5 mg/kg/injection, schedule: Q01DX009 (ip), vehicle: saline).

Consider `CC(C)(C)N=S=Nc1c(F)c(F)c(F)c(F)c1F`, for which the T/C under setting [8] was 110 % of control and the T/C under setting [9] is 106 % of control.

In the case of `O[O][Sn][c]1ccccc1`, the T/C reads like this: under setting [13], 100 % of control; under setting [14], 100 % of control; under setting [15], 86 % of control.

As to `CC(C)Oc1ccc2c(c1)Sc1ccc(Cl)cc1N2`, the T/C is 100 % of control (dose: 100.0 mg/kg/injection, schedule: Q04DX003 (ip), vehicle: saline with Tween-80); 100 % of control (dose: 200.0 mg/kg/injection, schedule: Q04DX003 (ip), vehicle: saline with Tween-80); 100 % of control (dose: 400.0 mg/kg/injection, schedule: Q04DX003 (ip), vehicle: saline with Tween-80).

Turning to `CCO/C=N/NC(=O)CNC(=O)C=[N+]=[N-]`, the T/C (dose: 180.0 mg/kg/injection, schedule: Q01DX009 (ip), vehicle: water) is 172 % of control.

In the case of `O=c1[nH]c2nc(SCc3ccccc3)n(Cc3ccccc3)c2c(=O)n1OS(=O)(=O)c1ccccc1`, the T/C by setting is: under setting [10], 98 % of control; under setting [11], 90 % of control; under setting [12], 90 % of control.

Take `Cc1c(C(N)=O)c(-c2ccccc2)c(-c2ccccc2)n1Nc1ccccc1`: the T/C reads like this: (dose: 60.0 mg/kg/injection, schedule: Q01DX005 (ip), vehicle: Klucel (hydroxypropylcellulose) (HPC)) 95 % of control; (dose: 120.0 mg/kg/injection, schedule: Q01DX005 (ip), vehicle: Klucel (hydroxypropylcellulose) (HPC)) 96 % of control; (dose: 240.0 mg/kg/injection, schedule: Q01DX005 (ip), vehicle: Klucel (hydroxypropylcellulose) (HPC)) 92 % of control.

Turning to `N#CC1=CN=C2C=CC=C3N=C(C(Cl)(Cl)Cl)N=C1N32`, the T/C (dose: 15.0 mg/kg/injection, schedule: Q01DX005 (ip), vehicle: Klucel + Tween-80) is 92 % of control; the T/C (dose: 30.0 mg/kg/injection, schedule: Q01DX005 (ip), vehicle: Klucel + Tween-80) was 87 % of control; the T/C (dose: 60.0 mg/kg/injection, schedule: Q01DX005 (ip), vehicle: Klucel + Tween-80) is 93 % of control.

Regarding `Cc1ccc(N2C(=O)CC3(CCCC3)C2=O)cc1Cl`, the T/C is 104 % of control (dose: 50.0 mg/kg/injection, schedule: Q01DX009 (ip), vehicle: Klucel (hydroxypropylcellulose) (HPC)); 108 % of control (dose: 100.0 mg/kg/injection, schedule: Q01DX009 (ip), vehicle: Klucel (hydroxypropylcellulose) (HPC)); 105 % of control (dose: 200.0 mg/kg/injection, schedule: Q01DX009 (ip), vehicle: Klucel (hydroxypropylcellulose) (HPC)).

Turning to `C=C1C(=O)OC2(CCCCC)CCCCC12` (centres undefined), the T/C under setting [1] is 96 % of control, the T/C under setting [2] was 99 % of control and the T/C under setting [3] is 96 % of control.

Turning to `COc1ccc(C(=O)CCN(C)C)cc1`, the T/C was 104 % of control under setting [1] and 104 % of control under setting [2].

Turning to `Nc1ccn(C2OC3COC2C3O)c(=O)n1` (centres undefined), the T/C (dose: 25.0 mg/kg/injection, schedule: Q01DX009 (ip), vehicle: saline) was 112 % of control; the T/C (dose: 50.0 mg/kg/injection, schedule: Q01DX009 (ip), vehicle: saline + alcohol) was 100 % of control; the T/C under setting [1] was 110 % of control; the T/C (dose: 100.0 mg/kg/injection, schedule: Q01DX009 (ip), vehicle: saline + alcohol) is 105 % of control; the T/C under setting [2] was 116 % of control; the T/C (dose: 200.0 mg/kg/injection, schedule: Q01DX009 (ip), vehicle: saline + alcohol) is 112 % of control. Moreover, the T/C is, setting by setting: under setting [3], 117 % of control; (dose: 400.0 mg/kg/injection, schedule: Q01DX009 (ip), vehicle: saline + alcohol) 112 % of control; under setting [4], 122 % of control; (dose: 800.0 mg/kg/injection, schedule: Q01DX009 (ip), vehicle: saline + alcohol) 114 % of control.
